According to US20250082760A1 (priority 2020, published 2025):
Counter-ions that a name gives are not always drawn.

How the values were obtained:
[1] = system: lipopolysaccharide-induced depression mouse model; assay: lipopolysaccharide-induced depression mouse model (open field, forced swimming test, body weight); type: in vivo, ICR mice
Procedure: Positive drug: fluoxetine hydrochloride capsule (specification 20 mg), take the content in a mortar, add 40 ml of 0.5% CMC-Na solution while grinding, to a suspended state, set EP tube for use; test drug (compound 5): dissolve into 5, 10, and 20 mg/ml solutions in distilled water, respectively, and put them in EP tubes for later use; modeling drug (LPS): take a frozen lipopolysaccharide PBS solution (1.2 mg: 1.2 ml), and after thawing Use a pipette to take 1 ml into the EP tube, replace with a new pipette tip and pipette 9 ml of normal saline into the EP tube, shake well for use.
Except for the first group (blank control group), other groups of animals were intraperitoneally injected with LPS 2 h before the last administration on the 7th day to the mice in the model group, the positive drug group, and the low, middle and high dose groups of the test drug.
The first group was the blank control group, which was given 0.5% CMC-Na 0.2 ml/20 g by gavage; the second group was the model group, which was given 0.5% CMC-Na by gavage; the third group was the positive drug group, which was given by gavage Flunarizine hydrochloride (sibilin) 1 mg/kg; the fourth group was the low-dose group of the test drug, which was given 100 mg/kg of compound 5 by gavage; the fifth group was the medium-dose group of the test drug, which was given 200 mg/kg by gavage. kg of compound 5; the sixth group was the test drug high-dose group, and 400 mg/kg of compound 5 was administered by gavage. The drug was administered for one week, and the second to sixth groups were intraperitoneally injected with 1 mg/kg (0.2 ml/20 g) of LPS on the seventh day to establish a model.
On the 7th day, before the last administration and modeling, the effect of the drug on the spontaneous activity of the mice should be investigated, and it is excluded that the drug increases the spontaneous activity of the mice and interferes with the immobility time in the forced swimming experiment. The total migration distance of each mouse in the open field (50×50×50 cm) within 5 min was calculated using the open field experimental instrument and related computer software. Before the data collection, each mouse was given 5 min to familiarize with the open field environment, after each mouse was tested, its excrement was removed and the odor was eliminated with an alcohol spray bottle.
Because the air temperature is low, it is appropriate to control the water temperature by adding hot water to the cylinder.
In the spontaneous activity, the behavioral index selects the total migration distance of mice in the open field within 5 minutes,
by tracking the movement trajectory of mice through monitoring devices, and using computer software, the total distance of movement can be directly obtained; in the FST experiment, the mice were placed in a into a transparent cylinder filled with warm water (about 25° C.) for 6 minutes, the mice will experience struggling, swimming and floating behaviors, the time when the mice stop struggling to float on the water surface is identified as a state of despair caused by depression, by using monitoring equipment and computer software to statistically analyze the state of mice after 4 minutes, the total “Immobility time” can be directly obtained.

[2] = system: reserpine depression model mice; assay: forced swimming test in mice (reserpine depression model); type: in vivo, Kunming mice
Procedure: Experimental Drug, Animal, Grouping and Administration are Same as Sugar Water Preference Experiment Method.
Preparation of depression animal models, acute intraperitoneal injection of 6 mg/kg Res can cause a continuous decrease in monoamine neurotransmitters in the brain for 1 week, and depression-like behaviors last for 72 hours, it is often utilized for the preparation of depression models (Huang et al., 2004).
Forced swimming experiment process, the forced swimming experiment is an experiment in which animals are placed in an unavoidable stressful environment to detect the despair state of animal behavior (Porsolt et al., 1978). Male Kunming mice were selected and randomly divided into groups. Conduct in a quiet and enclosed behavioral observation room, with red lights for indoor lighting (25 lux). The experiment is divided into two stages, the first stage: adaptation experiment, 1 day before the test, 9:00-12:00 h, put the animals into the forced swimming test equipment (plexiglass drum: diameter 20 cm, height 25 cm, water depth 12 cm, water temperature 21-25° C., the upper side CCD camera is connected to the computer to record) after 15 minutes of adaptation, take it out, dry the hair with a towel and put it back into the cage. The second stage: testing experiment, animals in each group were put into the forced swimming bucket for 5 minutes at the same time period, and the behavioral activities during the testing period were tracked and recorded by digital cameras and then analyzed. Immobility time: The animal floats on the water surface, with no movement of the limbs or slight movement of the hind limbs to keep the head above the water surface. Evaluate depression like behavior by detecting the despair state of animals based on their immobility time.
Statistical analysis, the experimental data were analyzed by SPSS 19.0 statistical software, and all data were expressed as Means±SEM.

[3] = Res 6 mg/kg + compound 5 56 mg/kg i.p.

## CC(C)c1cccc(C(C)C)c1OC(=O)CC1(CN(C)C)CCCCC1 [Compound 5, 2,6-diisopropylphenyl 2-(1-((dimethylamino)methyl)cyclohexyl)acetate hydrochloride]
[1]; compound 5 100, 200, 400 mg/kg and positive drug, gavage for one week
  effect on body weight of mice: no significant effect
[1]; compound 5 100, 200, 400 mg/kg and positive drug, gavage for one week, no statistical difference found
  alleviation of depressive behavior caused by LPS: certain alleviation effect
[1]; reference blank group, day 7 before last administration, all dose groups, p>0.05
  spontaneous activity: total migration distance in open field within 5 minutes: no significant effect
[1]; reference model group, compound 5 100, 200, 400 mg/kg and positive drug, gavage for one week, 4 h after LPS
  FST immobility time: not significantly different (p>0.05)
[2]; [3]
  antidepressant effect (forced swimming test): significant antidepressant effect
  forced immobility time compared with the Res+A1P1 group: shortened to a certain extent, but there was no significant difference
  forced immobility time compared with the Res+Pro group: shortened and there was a significant difference
[2]; after Res 6 mg/kg i.p., CLI 50, Pro 25, A1P1 24 and 25, compound 5 56 mg/kg i.p.
  change of forced swimming immobility time compared with the Res+DMSO group: slightly shortened
[2]; after Res 6 mg/kg i.p., CLI 50, Pro 25, A1P1 24 and 25, compound 5 56 mg/kg i.p., 5 min test, Means±SEM, Res + DMSO 169.82 ± 11.22, DMSO 106.72 ± 16.49
  Forced swimming immobility time: 116.29 ± 22.23 s
